Results taken from patent US20190022152A1, “MICROBIOME RESPONSE TO AGENTS” (Yeda Research and Development Co., Ltd., priority 2014, published 2019).

Tests used:
[1] = cited from earlier work
[2] = test system: microbiota of germ-free recipient mice
Description: C57Bl/6 WT adult male mice were randomly assigned (without blinding) to treatment groups and were given commercial artificial sweeteners (saccharin-, sucralose- or aspartame-based) or pure saccharin (Sigma Aldrich) in drinking water and fed a high-fat (HFD D12492, 60% Kcal from fat, Research Diets) or standard polysaccharide normal chow (NC) diet (Harlan-Teklad). Compared groups were always fed from the same batch of diet. For antibiotic treatment, mice were given a combination of ciprofloxacin (0.2 gl^−1) and metronidazole ([…]) or vancomycin (0.5 gl^−1) in their drinking water. All antibiotics were obtained from Sigma Aldrich. Adult male outbred Swiss-Webster mice (a widely used mouse strain in germ-free experiments) served as recipients for fecal transplants and were housed in sterile isolators (Park Biosciences). For fecal transplantation experiments, 200 mg of stool (from mouse pellets or human swabs) was resuspended in 5 ml of PBS under anaerobic conditions, vortexed for 3 minutes and allowed to settle by gravity for 2 minutes. Recipient mice were gavaged with 200 μl of the supernatant and maintained on standard NC diet and water throughout the experiment.
pooled fecal matter from naïve adult WT C57Bl/6 male mice was resuspended in 5 ml PBS in an anaerobic chamber (Coy Laboratory Products, 75% N2, 20% CO2, 5% H2), vortexed for 3 minutes and allowed to settle by gravity for 2 minutes. […] were added to a tube containing Chopped Meat Carbohydrate Broth, PR II (BD) and […] of a 5 mgml-1 saccharin solution or an equal volume of PBS. Every 3 days, 500 ml of culture were diluted to fresh medium containing saccharin or PBS. After 9 days, cultures were used for inoculation of germ-free mice.
Frozen fecal samples were processed for DNA isolation using the MoBio PowerSoil kit according to the manufacturer's instructions. 1 ng of the purified fecal DNA was used for PCR amplification and sequencing of the bacterial 16S rRNA gene. ˜365 bp Amplicons spanning the variable region 2 (V2) of the 16S rRNA gene were generated by using the following barcoded primers: Fwd 5′-[…]-3′ (SEQ ID NO: 3), Rev 5′-[…]-3′ (SEQ ID NO: 4). […] Reads were then processed using the QIIME (Quantitative Insights Into Microbial Ecology) analysis pipeline as described, version 1.8. Paired-end joined sequences were grouped into operational taxonomic units (OTUs) using the UCLUST algorithm and the greengenes database. Sequences with distance-based similarity of 97% or greater over median sequence length of 353 bp were assigned to the same OTU. Samples were grouped according to the treatment. Analysis was performed at each taxonomical level (Phylum-genus+OTU level) separately. For each taxon, G test was performed between the different groups. P-values were FDR corrected for multiple hypothesis testing.

[3] = GF recipients of D7 vs D1 microbiome from human responder
[4] = GF recipients of saccharin-enriched culture, day 6, level 2

O=C1NS(=O)(=O)c2ccccc21 [saccharin]
FDA defined ADI (acceptable daily intake) in humans ([1]; humans): 5 mgkg^−1 | reported toxic dose ([1]; literature values): 6.3 gkg^−1 | decrease in Candidatus Arthromitus [2, 3]: ~10 fold | relative increase of Bacteroides fragilis [2, 3]: 20 fold | relative increase of Weissella ciboria [2, 3]: 20 fold | Saccharin Enriched D6: p_Bacteroidetes [2, 4]: 0.611 | Saccharin Enriched D6: p_Firmicutes [2, 4]: 0.3649 | Saccharin Enriched D6: p_Tenericutes [2, 4]: 0.02291 | Saccharin Enriched D6: p_Bacteroidetes; c_Bacteroidia ([2]; GF recipients, day 6, level 3): 0.6108 | Saccharin Enriched D6: p_Firmicutes; c_Bacilli ([2]; GF recipients, day 6, level 3): 0.3122 | Saccharin Enriched D6: p_Firmicutes; c_Clostridia ([2]; GF recipients, day 6, level 3): 0.05266 | Saccharin Enriched D6: p_Proteobacteria; c_Gammaproteobacteria ([2]; GF recipients, day 6, level 3): 0.0001278 | Saccharin Enriched D6: p_Tenericutes; c_Mollicutes ([2]; GF recipients, day 6, level 3): 0.02291 | Saccharin Enriched D6: c_Bacilli; o_Lactobacillales ([2]; GF recipients, day 6, level 4): 0.3116 | Saccharin Enriched D6: c_Bacteroidia; o_Bacteroidales ([2]; GF recipients, day 6, level 4): 0.6108 | Saccharin Enriched D6: c_Clostridia; o_Clostridiales ([2]; GF recipients, day 6, level 4): 0.05266 | Saccharin Enriched D6: c_Gammaproteobacteria; o_Enterobacteriales ([2]; GF recipients, day 6, level 4): 0.0001248 | Saccharin Enriched D6: c_Mollicutes; o_Anaeroplasmatales ([2]; GF recipients, day 6, level 4): 0.02291 | Saccharin Enriched D6: o_Anaeroplasmatales; f_Anaeroplasmataceae ([2]; GF recipients, day 6, level 5): 0.02291 | Saccharin Enriched D6: o_Bacteroidales; f_Bacteroidaceae ([2]; GF recipients, day 6, level 5): 0.467 | Saccharin Enriched D6: o_Bacteroidales; f_Porphyromonadaceae ([2]; GF recipients, day 6, level 5): 0.1379 | Saccharin Enriched D6: o_Bacteroidales; f_S24-7 ([2]; GF recipients, day 6, level 5): 7.066E−05 | Saccharin Enriched D6: o_Bacteroidales; f_[Odoribacteraceae] ([2]; GF recipients, day 6, level 5): 0.004319 | Saccharin Enriched D6: o_Clostridiales; f_ ([2]; GF recipients, day 6, level 5): 0.04275 | Saccharin Enriched D6: o_Clostridiales; f_Clostridiaceae ([2]; GF recipients, day 6, level 5): 0.005131 | Saccharin Enriched D6: o_Clostridiales; f_Dehalobacteriaceae ([2]; GF recipients, day 6, level 5): 0.0008389 | Saccharin Enriched D6: o_Clostridiales; f_Ruminococcaceae ([2]; GF recipients, day 6, level 5): 0.003365 | Saccharin Enriched D6: o_Enterobacteriales; f_Enterobacteriaceae ([2]; GF recipients, day 6, level 5): 0.0001248 | Saccharin Enriched D6: o_Lactobacillales; f_Lactobacillaceae ([2]; GF recipients, day 6, level 5): 0.3087 | Saccharin Enriched D6: o_Lactobacillales; f_Streptococcaceae ([2]; GF recipients, day 6, level 5): 0.0009772 | Saccharin Enriched D6: f_Anaeroplasmataceae; g_Anaeroplasma ([2]; GF recipients, day 6, level 6): 0.02291 | Saccharin Enriched D6: f_Bacteroidaceae; g_Bacteroides ([2]; GF recipients, day 6, level 6): 0.467 | Saccharin Enriched D6: f_Clostridiaceae; g_Candidatus Arthromitus ([2]; GF recipients, day 6, level 6): 0.005047 | Saccharin Enriched D6: f_Clostridiaceae; g_Clostridium ([2]; GF recipients, day 6, level 6): 4.209E−05 | Saccharin Enriched D6: f_Dehalobacteriaceae; g_Dehalobacterium ([2]; GF recipients, day 6, level 6): 0.0008389 | Saccharin Enriched D6: f_Enterobacteriaceae; g_ ([2]; GF recipients, day 6, level 6): 0.0001248 | Saccharin Enriched D6: f_Lachnospiraceae; g_[Ruminococcus] ([2]; GF recipients, day 6, level 6): 7.818E−05 | Saccharin Enriched D6: f_Lactobacillaceae; g_Lactobacillus ([2]; GF recipients, day 6, level 6): 0.3087 | Saccharin Enriched D6: f_Porphyromonadaceae; g_Parabacteroides ([2]; GF recipients, day 6, level 6): 0.1379 | Saccharin Enriched D6: f_Ruminococcaceae; g_ ([2]; GF recipients, day 6, level 6): 0.003112 | Saccharin Enriched D6: f_S24-7; g_ ([2]; GF recipients, day 6, level 6): 7.066E−05 | Saccharin Enriched D6: f_Streptococcaceae; g_Lactococcus ([2]; GF recipients, day 6, level 6): 0.0008509 | Saccharin Enriched D6: f_[Odoribacteraceae]; g_Odoribacter ([2]; GF recipients, day 6, level 6): 0.004319 | Saccharin Enriched D6: o_Clostridiales; f_; g_ ([2]; GF recipients, day 6, level 6): 0.04275
